Tests used:
BMDM (murine C3aR) = type: cell-based, mouse
Experimental: (§1) Mouse bone marrow-derived macrophages (BMDMs) were obtained and cultured as previously described ([20], [21]). All experiments using mice were approved by the University of Queensland animal ethics committee. Wild-type and C3aR^-/- mice on a C57BL/6J genetic background (n = 3) were sacrificed by cervical dislocation. The tibia was removed and sterilised. Upon removal of both epiphyses, bone marrow cells were harvested by flushing the central cavity with complete RPMI-1640 medium using a 10 ml syringe attached to a 25-gauge needle. Cells were then cultured in complete RPMI-1640 medium (containing 10 % FBS, 100 IU/ml penicillin, 100 μg/ml streptomycin) supplemented with 100 ng/ml recombinant human macrophage colony stimulating factor on 10 mm square dishes. Mature adherent macrophages for assays were harvested on day 6-7 by gentle scraping.
Ligand-induced ERK1/2 phosphorylation was assessed using the AlphaLISA Surefire Ultra p-ERK1/2 (Thr202/Tyr204) kit (PerkinElmer, Melbourne, Australia) following the manufacturer’s protocol as previously described ([18], [20], [22]). Briefly, CHO-K1, CHO-C3aR, CHO-C5aR1, HMDMs (50,000/well) or BMDMs (90,000/well) were seeded in tissue culture-treated 96-well plates (Corning, Corning, USA) for 24 h and serum-starved overnight. All ligand dilutions were prepared in serum-free medium (SFM) containing 0.1% BSA. For inhibition assays, cells were pre-treated with the following ligands (5 µM SB290157, or respective concentrations of hC3a, mC3a, hC5a, hTLQP-21, and mTLQP-21) or the solvent-only control for 30 min before agonist (hC3a, hTLQP-21 and mTLQP-21) addition. The concentration and identity of the ligands are described in detail in the figure legends. For stimulation, cells were treated with ligands at the indicated concentrations for 10 min at RT and then immediately lysed using AlphaLISA lysis buffer on a microplate shaker (450 rpm, 10 min). For the detection of phospho-ERK1/2 content, cell lysate (5 μL/well) was transferred to a 384-well ProxiPlate (PerkinElmer, Melbourne, Australia) and added to the donor and acceptor reaction mix (2.5 μL/well, respectively), followed by a 2-h incubation at RT in the dark. On a Tecan Spark 20M (Tecan, Männedorf, Switzerland), the plate was measured using standard AlphaLISA settings.
All experiments were conducted in triplicates and repeated on three separate occasions unless otherwise specified. Data was analysed using GraphPad software (Prism 9.1). Data from each individual repeat was normalised accordingly (as specified in the figure legends) before being combined and expressed as mean ± standard error of the mean (S.E.M.) unless otherwise described. For all dose-response studies, logarithmic concentration-response curves were plotted using combined data and analysed to determine the respective potency values. Statistical analysis was performed using two-way ANOVA with Dunnett’s post hoc analysis. Donor-matched comparisons were made for HMDM experiments. Differences were deemed significant when p < 0.05.
Figure 4 TLQP-21 triggers ERK signalling through C3aR in murine bone marrow-derive macrophages. BMDMs (90,000/well) from wildtype mice (A) or with C3aR knockout mice (B), were serum-starved overnight and then stimulated with respective ligands at the indicated concentrations for 10 min. The phospho-ERK1/2 content in the cell lysate was measured and normalised to the medium only-treated levels before being combined. Data represent mean ± S.E.M. of triplicate measurements using cells from 3 mice (n = 3).

C3aR-deficient BMDMs = test: phospho-ERK1/2 assay in C3aR-deficient BMDMs; type: cell-based, mouse; conditions: 10 min stimulation; n = 3 mice
Experimental: as §1, with “Mature adherent macrophages for assays were harvested on day 6-7 by gentle scraping.” left out
(§2) Ligand-induced ERK1/2 phosphorylation was assessed using the AlphaLISA Surefire Ultra p-ERK1/2 (Thr202/Tyr204) kit (PerkinElmer, Melbourne, Australia) following the manufacturer’s protocol as previously described ([18], [20], [22]). […] On a Tecan Spark 20M (Tecan, Männedorf, Switzerland), the plate was measured using standard AlphaLISA settings.
Figure 4 TLQP-21 triggers ERK signalling through C3aR in murine bone marrow-derive macrophages. […] The phospho-ERK1/2 content in the cell lysate was measured and normalised to the medium only-treated levels before being combined. […]

HMDMs = test: homologous desensitisation control in HMDMs; type: cell-based, human; conditions: pre-treatment 10 nM hC3a, 10 μM hTLQP-21 or mTLQP-21 for 30 min, then same ligand 10 min
From the text: HMDMs were generated and cultured as previously described ([20]), with experiments approved by The University of Queensland Human Research Ethics Committee. Briefly, human buffy coat blood from anonymous healthy donors was obtained through the Australian Red Cross Blood Service (Brisbane, Australia). Human CD14+ monocytes were isolated from blood using Lymphoprep density centrifugation (STEMCELL, Melbourne, Australia) followed by CD14+ MACS magnetic bead separation (Miltenyi Biotec, Sydney, Australia). […]
as §2
Figure 3 Agonistic and antagonistic activities of hTLQP-21 and mTLQP-21 in human monocyte-derived macrophages. […] The phospho-ERK1/2 content in the cell lysate was measured and normalised to the maximum hC3a/hC5a-induced levels before being combined. […]

| Substance | % C3a activity ± SE, BMDM (BMDM (murine C3aR); relative to mC3a, wild-type BMDMs) [%] | logEC50 ± SE (pERK1/2), BMDM (BMDM (murine C3aR); wild-type BMDMs, 10 min stimulation at RT, C3a is recombinant mouse C3a) | EC50 (BMDM (murine C3aR); wild-type C57BL/6J BMDMs, 90,000/well, 10 min stimulation at RT, AlphaLISA p-ERK1/2, n = 3 mice, C3a is recombinant mouse C3a, read-out: EC50 (pERK1/2), BMDM) [nM] | ERK signalling in C3aR-deficient BMDMs (C3aR-deficient BMDMs) | homologous desensitisation of ERK activity (HMDMs) |
| --- | --- | --- | --- | --- | --- |
| C3a: Table 1 label: human C3a in CHO-C3aR and HMDM, recombinant mouse C3a in BMDM | 100 ± 4.1 | -8.1 ± 0.1 | 8.4 | – | – |
| hC3a: purified (plasma-derived) human C3a, purchased from Merck | – | – | – | Neither hC3a, nor the TLQP-21 peptides caused any significant ERK signalling activity in C3aR-deficient cells | significantly dampened the subsequent ERK activity triggered by these ligands |

From article PMC9909341, “TLQP-21 is a low potency partial C3aR activator on human primary macrophages” (Frontiers in Immunology, 2023)
